According to US11208400B2, “Substituted 6-(1H-pyrazol-1-yl)pyrimidin-4-amine derivatives and uses thereof” (Bayer Aktiengesellschaft, priority 2016, dated 2021):

Target: T1, human Npt2a (Homo sapiens, UniProt Q06495)
T1 construct: expressed in transfected cells
T1 sequence (Q06495 1-639): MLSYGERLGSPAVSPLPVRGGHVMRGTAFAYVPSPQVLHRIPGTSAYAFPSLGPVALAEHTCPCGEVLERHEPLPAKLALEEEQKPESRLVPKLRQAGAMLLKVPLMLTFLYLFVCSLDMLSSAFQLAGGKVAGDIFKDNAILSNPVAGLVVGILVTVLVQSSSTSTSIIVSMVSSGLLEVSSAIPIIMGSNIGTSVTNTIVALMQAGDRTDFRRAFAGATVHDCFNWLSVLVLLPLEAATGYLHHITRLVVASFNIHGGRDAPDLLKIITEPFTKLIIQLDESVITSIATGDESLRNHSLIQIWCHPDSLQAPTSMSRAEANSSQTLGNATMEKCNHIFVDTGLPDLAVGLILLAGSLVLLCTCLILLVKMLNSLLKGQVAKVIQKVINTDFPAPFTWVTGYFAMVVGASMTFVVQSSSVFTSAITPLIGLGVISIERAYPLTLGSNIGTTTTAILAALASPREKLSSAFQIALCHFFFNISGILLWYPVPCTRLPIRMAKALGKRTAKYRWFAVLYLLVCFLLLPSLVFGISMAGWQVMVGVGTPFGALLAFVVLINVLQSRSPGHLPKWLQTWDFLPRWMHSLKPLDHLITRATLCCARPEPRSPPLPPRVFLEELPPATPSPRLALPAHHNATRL
Assay: Npt2a activity cell based assay, membrane potential dye, CHO T-REx hNpt2a cells
Details: doxycycline-induced, depolarization by sodium phosphate influx, average or median values if tested more than once
Procedure, shortened: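 Cells were doxycycline-induced CHO T-REx hNpt2a, dye-loaded and pretreated 5 min at RT with 1 nM–50 μM compound in Na-free pH 7.4 buffer. IC50 was fit to the post/pre-trigger fluorescence ratio.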

Row | SMILES | IC50
1 | CCc1c(Nc2cc(-n3cc4c(n3)CCCC4)ncn2)n[nH]c1-c1ccc(F)cc1 [Example 18, N-[4-ethyl-5-(4-fluorophenyl)-1H-pyrazol-3-yl]-6-(4,5,6,7-tetrahydro-2H-indazol-2-yl)pyrimidin-4-amine] | 0.11 µM
2 | Cc1nn(-c2cc(Nc3c(C)c(-c4ccc(C#N)cc4)nn3CC3CC3)ncn2)c(C)c1C(F)(F)F [Example 373, 4-[1-(cyclopropylmethyl)-5-({6-[3,5-dimethyl-4-(trifluoromethyl)-1H-pyrazol-1-yl]pyrimidin-4-yl}amino)-4-methyl-1H-pyrazol-3-yl]benzonitrile] | 0.005 µM
3 | CCc1c(Nc2cc(-n3nc(C)cc3C(C)(C)O)ncn2)nn(C)c1-c1ccc(F)cc1 [Example 125, 2-[1-(6-{[4-ethyl-5-(4-fluorophenyl)-1-methyl-1H-pyrazol-3-yl]amino}pyrimidin-4-yl)-3-methyl-1H-pyrazol-5-yl]propan-2-ol] | 0.0203 µM
4 | Cc1nn(-c2cc(Nc3c(C)c(-c4ccc(C#N)cc4)nn3CC3CC3)ncn2)c(C)c1C(O)C(F)(F)F (single isomer, unassigned) [Example 360, 4-{1-(cyclopropylmethyl)-5-[(6-{3,5-dimethyl-4-[(1 S)-2,2,2-trifluoro-1-hydroxyethyl]-1H-pyrazol-1-yl}pyrimidin-4-yl)amino]-4-methyl-1H-pyrazol-3-yl}benzonitrile] | 0.006 µM
5 | Cc1nn(-c2cc(Nc3c(C)c(-c4ccc(C(F)(F)F)cc4)nn3CC3CC3)ncn2)c(C)c1C(C)(C)O [Example 292, 2-{1-[6-({1-(cyclopropylmethyl)-4-methyl-3-[4-(trifluoromethyl)phenyl]-1H-pyrazol-5-yl}amino)pyrimidin-4-yl]-3,5-dimethyl-1H-pyrazol-4-yl}propan-2-ol] | 0.24 µM
6 | Cc1nn(-c2cc(Nc3c(C)nn(-c4ccc(F)cc4)c3C)ncn2)c(C)c1CC(C)(C)O [Example 393, 1-[1-(6-{[1-(4-fluorophenyl)-3,5-dimethyl-1H-pyrazol-4-yl]amino}pyrimidin-4-yl)-3,5-dimethyl-1H-pyrazol-4-yl]-2-methylpropan-2-ol] | 0.18 µM
7 | Cc1cc(C)n(-c2cc(Nc3c(C)c(-c4ccc(F)cc4)nn3CC(O)C3CC3)ncn2)n1 (racemic) [Example 369, (±)-1-cyclopropyl-2-[5-{[6-(3,5-dimethyl-1H-pyrazol-1-yl)pyrimidin-4-yl]amino}-3-(4-fluorophenyl)-4-methyl-1H-pyrazol-1-yl]ethanol] | 0.42 µM
8 | Cc1cc(C)n(-c2cc(Nc3nn(C)c(-c4ccc(C(F)(F)F)nc4)c3C)ncn2)n1 [Example 559, 6-(3,5-dimethyl-1H-pyrazol-1-yl)-N-{1,4-dimethyl-5-[6-(trifluoromethyl)pyridin-3-yl]-1H-pyrazol-3-yl}pyrimidin-4-amine] | 0.11 µM
9 | Cc1nn(-c2cc(Nc3c(C)c(-c4ccc(C(F)F)cc4)nn3CC3CC3)ncn2)c(C)c1C(O)C1CC1 (single isomer, unassigned) [Example 495, Cyclopropyl {1-[6-({1-(cyclopropylmethyl)-3-[4-(difluoromethyl)phenyl]-4-methyl-1H-pyrazol-5-yl}amino)pyrimidin-4-yl]-3,5-dimethyl-1H-pyrazol-4-yl}methanol] | 0.011 µM
10 | Cc1c(-c2ccc(F)cc2)nn(CC2CC2)c1Nc1cc(-n2nc3c(c2C)C(O)(C(F)(F)F)CC3)ncn1 (racemic) [Example 403, (±)-2-(6-{[1-(cyclopropylmethyl)-3-(4-fluorophenyl)-4-methyl-1H-pyrazol-5-yl]amino}pyrimidin-4-yl)-3-methyl-4-(trifluoromethyl)-2,4,5,6-tetrahydrocyclopenta[c]pyrazol-4-ol] | 0.012 µM
11 | Cc1ccc(-c2nn(CC3CC3)c(Nc3cc(-n4nc(C)c(C(C)(C)O)c4C)ncn3)c2C)cc1 [Example 389, 2-[1-(6-{[1-(cyclopropylmethyl)-4-methyl-3-(4-methylphenyl)-1H-pyrazol-5-yl]amino}pyrimidin-4-yl)-3,5-dimethyl-1H-pyrazol-4-yl]propan-2-ol] | 0.13 µM
12 | Cc1cc(C(C)(C)O)n(-c2cc(Nc3c(C)c(-c4ccc(C(F)(F)F)cc4)nn3CC3CC3)ncn2)n1 [Example 293, 2-{1-[6-({1-(cyclopropylmethyl)-4-methyl-3-[4-(trifluoromethyl)phenyl]-1H-pyrazol-5-yl}amino)pyrimidin-4-yl]-3-methyl-1H-pyrazol-5-yl}propan-2-ol] | 0.57 µM
13 | CCOC(=O)c1c(C)nn(-c2cc(Nc3c(Cl)c(-c4ccc(F)cc4)nn3CC3CC3)ncn2)c1C [Example 158, ethyl 1-(6-{[4-chloro-1-(cyclopropylmethyl)-3-(4-fluorophenyl)-1H-pyrazol-5-yl]amino}pyrimidin-4-yl)-3,5-dimethyl-1H-pyrazole-4-carboxylate] | 0.004 µM
14 | COCCn1nc(-c2ccc(C(F)F)cc2)c(C)c1Nc1cc(-n2nc(C)c(Cl)c2C)ncn1 [Example 537, 6-(4-chloro-3,5-dimethyl-1H-pyrazol-1-yl)-N-{3-[4-(difluoromethyl)phenyl]-1-(2-methoxyethyl)-4-methyl-1H-pyrazol-5-yl}pyrimidin-4-amine] | 0.026 µM
15 | Cc1nn(-c2cc(Nc3nn(C)c(-c4ccc(C(F)(F)F)nc4)c3C)ncn2)c(C)c1Cl [Example 553, 6-(4-chloro-3,5-dimethyl-1H-pyrazol-1-yl)-N-{1,4-dimethyl-5-[6-(trifluoromethyl)pyridin-3-yl]-1H-pyrazol-3-yl}pyrimidin-4-amine] | 0.0072 µM
16 | CCc1c(-c2ccc(F)cc2)nn(CC2CC2)c1Nc1cc(-n2nc(C)c(-c3nnc(C)o3)c2C)ncn1 [Example 225, N-[1-(cyclopropylmethyl)-4-ethyl-3-(4-fluorophenyl)-1H-pyrazol-5-yl]-6-[3,5-dimethyl-4-(5-methyl-1,3,4-oxadiazol-2-yl)-1H-pyrazol-1-yl]pyrimidin-4-amine] | 0.008 µM
17 | COc1c(C)nn(-c2cc(Nc3c(C)c(-c4ccc(C#N)cc4)nn3C)ncn2)c1C [Example 436, 4-(5-{[6-(4-methoxy-3,5-dimethyl-1H-pyrazol-1-yl)pyrimidin-4-yl]amino}-1,4-dimethyl-1H-pyrazol-3-yl)benzonitrile] | 0.01 µM
18 | Cc1nn(-c2cc(Nc3nn(CCC4CC4)c(-c4ccc(C#N)cc4)c3C)ncn2)c(C)c1Cl [Example 222, 4-[3-{[6-(4-chloro-3,5-dimethyl-1H-pyrazol-1-yl)pyrimidin-4-yl]amino}-1-(2-cyclopropylethyl)-4-methyl-1H-pyrazol-5-yl]benzonitrile] | 0.044 µM
19 | COCCn1nc(-c2ccc(F)cn2)c(C)c1Nc1cc(-n2nc(C)c(OC)c2C)ncn1 [Example 544, N-[3-(5-fluoropyridin-2-yl)-1-(2-methoxyethyl)-4-methyl-1H-pyrazol-5-yl]-6-(4-methoxy-3,5-dimethyl-1H-pyrazol-1-yl)pyrimidin-4-amine] | 0.011 µM
20 | CCC(O)c1c(C)nn(-c2cc(Nc3c(C)c(-c4ccc(F)cc4)nn3CC3CC3)ncn2)c1C (racemic) [Example 280, (±)-1-[1-(6-{[1-(cyclopropylmethyl)-3-(4-fluorophenyl)-4-methyl-1H-pyrazol-5-yl]amino}pyrimidin-4-yl)-3,5-dimethyl-1H-pyrazol-4-yl]propan-1-ol (Racemic)] | 0.016 µM
21 | CCc1c(Nc2cc(-n3nc(C)c4ccccc43)ncn2)n[nH]c1-c1ccc(F)cc1 [Example 19, N-[4-ethyl-5-(4-fluorophenyl)-1H-pyrazol-3-yl]-6-(3-methyl-1H-indazol-1-yl)pyrimidin-4-amine] | 0.11 µM
22 | Cc1cc(C)n(-c2cc(Nc3c(C)c(-c4ccc(Cl)cc4)nn3C)ncn2)n1 [Example 354, N-[3-(4-chlorophenyl)-1,4-dimethyl-1H-pyrazol-5-yl]-6-(3,5-dimethyl-1H-pyrazol-1-yl)pyrimidin-4-amine] | 0.135 µM
23 | CCOC(=O)c1cc(C)nn1-c1cc(Nc2nn(C)c(-c3ccc(F)cc3)c2Cl)ncn1 [Example 447, ethyl 1-(6-{[4-chloro-5-(4-fluorophenyl)-1-methyl-1H-pyrazol-3-yl]amino}pyrimidin-4-yl)-3-methyl-1H-pyrazole-5-carboxylate] | 0.56 µM
24 | CCc1c(Nc2cc(-n3nc(C)cc3C(F)F)ncn2)nn(C)c1-c1ccc(C#N)cc1 [Example 217, 4-[3-({6-[5-(difluoromethyl)-3-methyl-1H-pyrazol-1-yl]pyrimidin-4-yl}amino)-4-ethyl-1-methyl-1H-pyrazol-5-yl]benzonitrile] | 0.002 µM
25 | COCCn1nc(-c2ccc(F)cc2)c(C)c1Nc1cc(-n2nc(C)cc2C(F)F)ncn1 [Example 527, 6-[5-(difluoromethyl)-3-methyl-1H-pyrazol-1-yl]-N-[3-(4-fluorophenyl)-1-(2-methoxyethyl)-4-methyl-1H-pyrazol-5-yl]pyrimidin-4-amine] | 0.009 µM
26 | COc1c(-c2ccc(C#N)cc2)nn(CC2CC2)c1Nc1cc(-n2nc(C)c(C(C)OC)c2C)ncn1 (single isomer, unassigned) [Example 334, 4-{1-(cyclopropylmethyl)-4-methoxy-5-[(6-{4-[1-methoxyethyl]-3,5-dimethyl-1H-pyrazol-1-yl}pyrimidin-4-yl)amino]-1H-pyrazol-3-yl}benzonitrile] | 0.041 µM
